From ChEMBL document CHEMBL1158148, “Characterization of an irritant 4-deoxyphorbol diester from Euphorbia tirucalli” (J Nat Prod, 1979)

Key:
Mus musculus [1] = organism: Mus musculus; test: Toxicity against Swiss-Webster mouse assessed as irritation in ear per 5 ul after 24 hrs; type: organism-based; conditions: in vivo, topical_or_ocular
Mus musculus [2] = organism: Mus musculus; test: Toxicity against Swiss-Webster mouse assessed as irritation in ear per 5 ul after 4 hrs; type: organism-based; conditions: in vivo, topical_or_ocular

| Compound | ID50 (Mus musculus [1]) | ID50 (Mus musculus [2]) |
| --- | --- | --- |
| CC1=C[C@H]2[C@@]3(O)[C@H](C)[C@@H](OC(=O)c4ccccc4)[C@]4(OC(=O)c5ccccc5)[C@H]([C@@H]3C=C(CO)C[C@]2(O)C1=O)C4(C)C | 0.83 µg | 0.6 µg |
| CCC/C=C/C=C\C(=O)O[C@@H]1[C@@H](C)[C@]2(O)[C@@H]3C=C(C)C(=O)[C@@H]3CC(CO)=C[C@H]2[C@@H]2C(C)(C)[C@]12O | > 100 µg | > 100 µg |
| CCC/C=C/C=C\C(=O)O[C@@H]1[C@@H](C)[C@]2(O)[C@@H]3C=C(C)C(=O)[C@H]3CC(CO)=C[C@H]2[C@@H]2C(C)(C)[C@]12OC(C)=O | 0.07 µg | 0.04 µg |
| CCCCCCCCCCCCCC(=O)O[C@@H]1[C@@H](C)[C@@]2(O)[C@@H](C=C(CO)C[C@]3(O)C(=O)C(C)=C[C@@H]23)[C@@H]2C(C)(C)[C@]12OC(C)=O [PHORBOL MYRISTATE ACETATE] | 0.05 µg | 0.04 µg |
